Results taken from patent US7692012B2, “Vanadium compounds as inhibitors of phosphatases” (Imperial College Innovations Limited, priority 2003, dated 2010).
Where two headings read alike, the source gives them in different places.

Key:
PTEN [1] = target: T1, PTEN (Mus musculus, UniProt O08586); assay: PTEN preliminary data (western blots); assay type: cell-based
T1 construct: endogenous in cells; host or cells: NIH3T3
Method: (§1) UM-UC-3 cells were treated in exactly the same manner. Cell samples were analysed on Western Blots with PKB antibodies.
(§2) All cell lysate samples were loaded on 10% SDS-PAGE and transferred to PVDF membranes for PKB analysis and nitrocellulose for phospho tyrosine detection. For PKB Western Blots membranes were blocked for 1 h with 5% milk powder in TBST followed by an incubation with anti Mass PKB antibody (1:1000) or anti phospho-PKB (Ser473) antibody (1:1000) in TBST for 2 h. Finally, membranes were exposed to a horseradish peroxidase-conjugated secondary antiserum (BIORAD) (1:1000) in 5% milk powder solution for 1 h. The Western Blots were developed with ECL™ solution (Amersham). In order to detect phosphorylated tyrosine residues nitrocellulose membranes were blocked for 1 h with 2.5% milk powder, first incubated with a specific anti phosphotyrosine antibody (4G10) (1:3000) for 1 h, and finally with horseradish peroxidase-conjugated secondary anti mouse antiserum. All PKB and Phospho-Tyrosine experiments were accomplished in three independent experiments and all membranes were re-probed using a specific tubulin antibody (1:1000). Density analysis of bands took place using the public domain NIH Image V1.62 program (developed at the U.S. National Institutes of Health and available on the Internet at http://rsb.info.nih.gov/nih-image/).

SopB = SopB (Salmonella typhimurium, UniProt O30916); assay: biochemical; assay type: biochemical
MTM = target: T2, MTM (Homo sapiens, UniProt Q13496); assay: MTM IC50 (inositol phosphatase inhibition); assay type: biochemical
T2 sequence (Q13496 1-603): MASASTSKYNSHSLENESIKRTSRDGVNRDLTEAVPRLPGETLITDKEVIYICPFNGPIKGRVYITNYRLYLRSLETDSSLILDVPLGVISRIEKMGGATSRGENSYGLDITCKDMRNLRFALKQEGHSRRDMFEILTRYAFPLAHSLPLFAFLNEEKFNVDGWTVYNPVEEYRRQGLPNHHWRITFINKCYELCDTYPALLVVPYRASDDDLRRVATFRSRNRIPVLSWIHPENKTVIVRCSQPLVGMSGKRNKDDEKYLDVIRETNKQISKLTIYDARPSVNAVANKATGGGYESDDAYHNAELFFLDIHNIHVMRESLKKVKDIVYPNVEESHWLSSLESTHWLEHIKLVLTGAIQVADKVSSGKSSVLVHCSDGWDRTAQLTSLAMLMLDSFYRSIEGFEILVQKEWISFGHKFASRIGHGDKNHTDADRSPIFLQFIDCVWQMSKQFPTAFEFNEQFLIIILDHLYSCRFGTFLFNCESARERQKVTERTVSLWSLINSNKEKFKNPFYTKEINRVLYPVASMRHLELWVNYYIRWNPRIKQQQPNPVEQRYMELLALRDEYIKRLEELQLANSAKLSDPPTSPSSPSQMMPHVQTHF

PTP-β = target: T3, PTP-β (Homo sapiens, UniProt P23467); assay: PTPase assay with pNPP as substrate; assay type: biochemical
T3 construct: purchased Upstate Biotechnology
Method: Protein tyrosine phosphatase (PTPase) assays were performed using the synthetic substrate p-nitrophenylphosphate (pNPP) and the phosphatases PTP-1B and PTP-β (Upstate Biotechnology). The standard assay conditions were 25 mM HEPES pH 7.2, 50 mM NaCl, 5 mM DTT, 2.5 mM EDTA, 100 μg/ml BSA, 1 mM pNPP (Sigma) and 4 unit PTP-1B and 10 unit PTP-β, respectively. The assay was started by adding the enzyme and was carried out for 15 min at 30 C in a preheated ELISA reader chamber. The linear increase of absorbance was monitored every 30 seconds at a wavelength of 410 nm.

PTEN [2] = target: T4, PTEN (Homo sapiens, UniProt P60484); assay: Malachite green phosphate release assay with PI(3,4,5)P3; assay type: biochemical
T4 construct: GST (N); made in house; host or cells: Escherichia coli DH5 alpha
Method: The coding region of the DNA sequence of human PTEN was cloned into a pGEX-4T2 expression vector (Pharmacia). Protein expression was induced overnight in the Escherichia coli DH5[…] strain using 100 μM IPTG at 18 C. GST-fusion proteins were purified according to the manufacturer's manual using glutathione sepharose 4B (Pharmacia). Protein integrity and specificity were confirmed on a Western Blot using GST antibody (Novagen).
Enzyme activity of recombinant PTEN was measured with a malachite green dye based phosphate release assay (No 230, No 83). The standard assay conditions were 200 mM Tris pH 7.4, 50 ng/μl BSA, and 15 ng/μl PTEN. The synthetic lipid PI(3,4,5)P3dC16 (Cell Signals) was used as a substrate for PTEN. The lipid was dissolved in methanol/H2O and stored at −20 C. Prior to the use in these PIPase experiments, an appropriate amount of lipid was dried down and resuspended in 1% Octylglycoside (Sigma). After 10 min of sonication lipid samples were ready to be added to the enzyme assay. All assays were started by adding the enzyme into the pre-heated buffer solution, containing PI(3,4,5)P3dC16. Linear PIPase reactions were performed at 30 C for 30 min in an incubation chamber. In order to stop the enzyme reaction, 0.7 volume of colour reagent (2.3 mg/ml malachite green in 3.6 M HCl and 17 mM ammonium molybdate) was added to the enzyme solution. The mixture was allowed to develop for 20 min and the absorbance at 625 nm was measured. For all inhibitor studies inhibitor concentrations from 0.1 nM up to 500 nM were pre-incubated with PTEN and the enzyme assays were started by adding 150 μM sonicated lipid. To normalize the phosphate release a phosphate standard curve was used. All experiments were repeated in tripletts. Calculations for IC50 values were performed using GraphPad Prism.

NIH3T3 cells = assay: Phalloidin staining (actin re-arrangement, morphology); assay type: cell-based; conditions: 0.1 μM, 6 h and 24 h
Method: In order to monitor morphological changes NIH3T3 cells were grown on 8-well chamber slides and incubated with concentrations of bpV(pic) and bpV(phen) between 0.1 and 10 μM for 6 h and 24 h, respectively. Fibroblasts were fixed with 4% para-formaldehyde (PFA), permeabilised with 0.2% Triton and blocked with 10% NCS (newborn calf serum). To stain actin filaments cells were incubated with TRITC-phalloidin (Sigma) (1:1000) for 1 h. Finally, nuclei were DAPI (Sigma) stained and mounted. Morphological analyses were assessed on a microscope using filters for TRITC and DAPI and pictures were captured using a camera.

[3] = tested on: PKB phosphorylation (pSer473) in NIH3T3 cells; assay: PKB assay: activation of insulin signalling pathway (insulin mimetic property), NIH3T3; assay type: cell-based; conditions: NIH3T3, 1 μM, 15 min, no insulin
Method: (§3) NIH3T3 cells (passage 5-20) were grown in 10% NCS D-MEM (GIBCO BRL) in 6-well plates at 37 C and 5% CO2. Starvation of the cells was carried out over 72 h in D-MEM containing 0.5% NCS. Prior use medium was changed to 0% D-MEM. UM-UC-3 cells which is a PTEN^− bladder tumour cell line (NO 195, No 196) were grown in 10% MEM (GIBCO BRL), starved with 0.5% MEM also for three days and finally incubated with serum free MEM.
Cells were washed once with PBS and lysed using 80 μl SDS-PAGE buffer (250 mM Tris pH 6.8, 20% glycerol, 4% SDS, 0.01% bromphenol blue, 50 mM mercaptoethanol). Samples were boiled for 15 min and stored at −20 C until analysis on Western Blots as described in the last paragraph.
as §2

[4] = tested on: PKB phosphorylation (Ser473) in NIH3T3 cells; assay: PKB assay in the presence of PI3K inhibitor Ly294002 and mTOR inhibitor rapamycin; assay type: cell-based
Method: In order to study the influence of PI3K and mTOR on the bpV-dependent insulin mimetic feature we treated NIH3T3 cells with 10 μM LY294002 (Promega) and 50 nM rapamycin (Calbiochem) for 20 min and 30 min, respectively, followed by an incubation with 10 μM or 1 μM bpv(pic) for 15 min. Cell lysates were analysed on PKB Western Blots.
as §2

[5] = tested on: phosphorylation of tyrosine residues in NIH3T3 cells; assay: Phosphotyrosine assay with NIH3T3 cells; assay type: cell-based; conditions: 15 min
Method: NIH3T3 cells were grown and starved as described earlier. After 72 h starvation cells were incubated for 15 min with 10% NCS, 50, 10 and […] insulin (Sigma), 10, 1, 0.1 and 0.01 μM bpV(pic) and bpV(phen), respectively. Cell lysates were prepared as described above and all samples were analysed on Western Blots using an anti phospho-tyrosine antibody (Upstate).
as §2

[6] = tested on: PKB phosphorylation (pSer473) in NIH3T3 cells; assay: Ly294002 dose dependence with and without bpV(pic); assay type: cell-based
Method: In order to find out whether bpV(pic) has an influence on Ly294002-dependent PKB inhibition we accomplished a dose response experiment applying concentrations from 0.01 up to 100 μM Ly294002 to two sets of quiescent fibroblasts and incubated for 20 min. One batch of cells were then further treated with 200 nM bpV(pic) (5 min) and all cells were finally stimulated with 10 μg/ml insulin for 15 min. Cell lysates were collected as described earlier. Calculations and graph were performed using GraphPad Prism.
as §2

PTEN [7] = target: T1, PTEN; assay: PKB assay: dose dependence of PTEN inhibition in insulin-stimulated NIH3T3 cells (pSer473 Western blot); assay type: cell-based
Method: as §3, §1, §2

[8] = +V compound, read-out: IC50 SopB

T1 sequence (O08586 whole entry): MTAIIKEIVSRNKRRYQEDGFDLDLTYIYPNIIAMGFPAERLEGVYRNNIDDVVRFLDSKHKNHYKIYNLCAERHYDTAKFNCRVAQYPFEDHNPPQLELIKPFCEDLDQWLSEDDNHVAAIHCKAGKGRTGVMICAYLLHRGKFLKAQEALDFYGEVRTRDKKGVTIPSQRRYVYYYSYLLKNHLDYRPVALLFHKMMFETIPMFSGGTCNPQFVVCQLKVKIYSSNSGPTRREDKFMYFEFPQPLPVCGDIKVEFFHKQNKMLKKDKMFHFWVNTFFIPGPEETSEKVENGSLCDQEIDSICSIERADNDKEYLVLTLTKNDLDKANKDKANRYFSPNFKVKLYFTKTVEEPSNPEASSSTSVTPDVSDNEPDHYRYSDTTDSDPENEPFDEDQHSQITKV
T4 sequence (P60484 whole entry): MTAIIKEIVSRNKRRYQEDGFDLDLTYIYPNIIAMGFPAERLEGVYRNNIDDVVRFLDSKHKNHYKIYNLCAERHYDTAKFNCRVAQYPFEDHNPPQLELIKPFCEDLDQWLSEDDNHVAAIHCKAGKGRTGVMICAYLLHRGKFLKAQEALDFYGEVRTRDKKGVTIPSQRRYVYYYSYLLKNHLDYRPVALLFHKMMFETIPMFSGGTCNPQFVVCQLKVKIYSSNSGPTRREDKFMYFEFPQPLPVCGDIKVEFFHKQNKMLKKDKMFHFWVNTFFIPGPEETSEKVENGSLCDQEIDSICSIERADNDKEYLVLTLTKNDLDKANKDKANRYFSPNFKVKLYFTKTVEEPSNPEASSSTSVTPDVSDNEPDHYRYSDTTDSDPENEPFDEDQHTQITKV
T3 sequence (P23467 23-1997): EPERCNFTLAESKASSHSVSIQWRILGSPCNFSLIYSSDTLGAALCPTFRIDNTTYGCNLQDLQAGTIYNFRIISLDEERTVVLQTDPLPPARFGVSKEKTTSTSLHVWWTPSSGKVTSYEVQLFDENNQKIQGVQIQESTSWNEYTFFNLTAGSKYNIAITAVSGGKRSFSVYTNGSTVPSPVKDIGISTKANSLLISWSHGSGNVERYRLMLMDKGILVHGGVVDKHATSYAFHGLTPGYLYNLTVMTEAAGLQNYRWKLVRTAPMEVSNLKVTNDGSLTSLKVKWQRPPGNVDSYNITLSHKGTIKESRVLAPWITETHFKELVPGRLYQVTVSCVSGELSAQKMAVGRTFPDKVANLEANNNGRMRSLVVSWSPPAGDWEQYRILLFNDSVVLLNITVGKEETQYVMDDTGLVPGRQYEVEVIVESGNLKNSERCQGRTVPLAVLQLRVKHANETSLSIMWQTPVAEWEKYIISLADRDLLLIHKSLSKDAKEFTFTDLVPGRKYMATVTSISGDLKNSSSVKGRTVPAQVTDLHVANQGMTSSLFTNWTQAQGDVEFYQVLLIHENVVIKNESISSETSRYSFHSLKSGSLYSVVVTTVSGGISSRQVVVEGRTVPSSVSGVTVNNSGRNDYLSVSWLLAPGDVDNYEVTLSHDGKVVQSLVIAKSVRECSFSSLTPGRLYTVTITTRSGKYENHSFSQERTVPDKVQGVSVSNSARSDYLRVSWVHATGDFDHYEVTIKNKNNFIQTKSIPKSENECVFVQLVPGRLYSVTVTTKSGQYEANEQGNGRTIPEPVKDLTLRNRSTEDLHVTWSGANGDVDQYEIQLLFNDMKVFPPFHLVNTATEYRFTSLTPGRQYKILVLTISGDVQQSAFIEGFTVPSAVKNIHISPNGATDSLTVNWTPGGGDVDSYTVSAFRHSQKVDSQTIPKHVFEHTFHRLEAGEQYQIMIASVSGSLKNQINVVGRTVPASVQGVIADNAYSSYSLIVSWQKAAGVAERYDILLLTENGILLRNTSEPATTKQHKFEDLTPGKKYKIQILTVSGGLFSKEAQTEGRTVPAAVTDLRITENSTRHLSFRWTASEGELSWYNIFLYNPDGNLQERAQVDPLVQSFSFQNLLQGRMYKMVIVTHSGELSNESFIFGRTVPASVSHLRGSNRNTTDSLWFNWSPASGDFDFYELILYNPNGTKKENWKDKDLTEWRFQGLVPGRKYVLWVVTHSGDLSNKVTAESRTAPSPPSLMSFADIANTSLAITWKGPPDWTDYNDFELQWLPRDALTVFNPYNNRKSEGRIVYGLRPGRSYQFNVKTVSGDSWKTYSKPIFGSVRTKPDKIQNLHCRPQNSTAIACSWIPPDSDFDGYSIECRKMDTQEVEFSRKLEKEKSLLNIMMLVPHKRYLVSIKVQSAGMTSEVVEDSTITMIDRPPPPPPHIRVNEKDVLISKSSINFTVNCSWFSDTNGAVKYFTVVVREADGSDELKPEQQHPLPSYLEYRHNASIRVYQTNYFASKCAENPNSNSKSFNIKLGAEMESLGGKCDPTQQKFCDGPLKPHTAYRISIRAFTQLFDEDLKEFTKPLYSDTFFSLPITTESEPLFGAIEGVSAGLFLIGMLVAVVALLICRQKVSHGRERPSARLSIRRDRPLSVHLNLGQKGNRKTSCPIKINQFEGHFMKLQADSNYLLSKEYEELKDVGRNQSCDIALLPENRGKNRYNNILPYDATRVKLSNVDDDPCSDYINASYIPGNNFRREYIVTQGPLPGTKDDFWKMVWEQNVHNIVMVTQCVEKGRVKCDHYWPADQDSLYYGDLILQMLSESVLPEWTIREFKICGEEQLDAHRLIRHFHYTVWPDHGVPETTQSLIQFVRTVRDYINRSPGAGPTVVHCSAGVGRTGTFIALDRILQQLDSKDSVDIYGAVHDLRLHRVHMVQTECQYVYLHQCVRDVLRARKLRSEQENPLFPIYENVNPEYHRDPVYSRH
SopB, sequence (O30916 whole entry): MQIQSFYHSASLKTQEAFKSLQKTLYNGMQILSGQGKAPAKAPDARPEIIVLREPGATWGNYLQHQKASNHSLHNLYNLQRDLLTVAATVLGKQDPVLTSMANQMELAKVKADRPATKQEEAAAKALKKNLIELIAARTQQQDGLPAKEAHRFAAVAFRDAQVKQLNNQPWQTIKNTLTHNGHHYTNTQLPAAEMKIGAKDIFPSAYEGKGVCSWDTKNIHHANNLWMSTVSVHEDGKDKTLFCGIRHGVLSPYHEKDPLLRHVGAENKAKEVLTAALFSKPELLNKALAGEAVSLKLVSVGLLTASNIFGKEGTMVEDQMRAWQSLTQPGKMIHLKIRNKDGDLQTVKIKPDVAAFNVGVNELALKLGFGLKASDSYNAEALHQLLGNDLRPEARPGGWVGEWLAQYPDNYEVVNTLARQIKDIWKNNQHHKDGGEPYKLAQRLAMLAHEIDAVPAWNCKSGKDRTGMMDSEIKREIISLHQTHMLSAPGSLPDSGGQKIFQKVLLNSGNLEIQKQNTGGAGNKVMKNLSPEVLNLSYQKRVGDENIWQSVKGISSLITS

With `O=C([O-])c1nccc2ccccc12.[K+].[K+].[O-][O-].[O-][O-].[O]=[V+3]` [pV(isoqu)] the IC50 (PTEN [1]) was 101 nM, the IC50 (SopB; [8]) was 79.8 ± 9.7 nM and the IC50 (MTM; Compound(+V)) was 868 ± 187 nM. It also gave an IC50 (PTP-β; V(+V) compounds) of 349000 ± 26500 nM.

With `O=C([O-])c1ccccn1.O=C([O-])c1ccccn1.[O]=[V+2]` [pic4] the IC50 (SopB; +IV compound, read-out: IC50 SopB) was 125 ± 1.65 nM, the IC50 (MTM; Compound(+IV)) was 6350 ± 3920 nM and the IC50 (PTP-β; V(+IV) compounds) was 589000 ± 32900 nM.

`O=C([O][V](=[O])[O]C(=O)c1ccc2ccccc2n1)c1ccc2ccccc2n1` [quinolin4] was tested, and the IC50 (SopB) was 1960 ± 870 nM, the IC50 (MTM; Compound(+IV)) was 9260 ± 40 nM and the IC50 (PTP-β; V(+IV) compounds) was 212000 ± 9400 nM.

For “dipotassium bisperoxo(phenylbiguanide)oxovanadate [pV(phenbig)]”, the IC50 (PTEN [1]) was 48.5 nM, the “specificity of phosphatase inhibition” value (PTEN [2]; PTEN versus SopB, MTM, PTP) was “specifically inhibit PTEN, but not SopB, MTM or PTP” and the “PTEN inhibition, summary in words” value (PTEN [2]; comment below PTEN table) was “very good inhibitors”. The IC50 (SopB; [8]) was 798 ± 41 nM and the IC50 (MTM; Compound(+V)) was 1890 ± 830 nM.

With “potassium bisperoxo (piconlinate) oxovanadate [bpV(pic)]” the “cellular morphology (actin staining)” value (NIH3T3 cells) was “remained unchanged”, the “phosphorylated PKB signal” value [3] was “weak signal” and the IC50 (PTEN [2]; head says published data, same values as the applicant's FIG. 1 study, read-out: PTEN Published data In vitro enzyme assay confirmed by in vivo data) was 31 ± 1.7 nM. For the same compound, the “phosphorylation of Ser473 of PKB” value ([4]; 1 μM bpV(pic) after pre-incubation with 50 nM rapamycin) was “provoked phosphorylated Ser473”, the “phosphorylation of Ser473 of PKB” value ([4]; 1 μM bpV(pic) alone) was “no signal was visible” and the “phosphorylation of Ser473 of PKB” value ([4]; 10 μM bpV(pic) after pre-incubation with 10 μM Ly294002) was “reduced phosphorylation rate”. For the same compound, the “phosphorylation of Ser473 of PKB” value ([4]; 10 μM bpV(pic) alone) was “high degree of phosphorylation”, the IC50 (MTM; Compound(+V)) was 239 ± 4.2 nM and the tyrosine phosphorylation ([5]; 0.01 μM) was “not distinguishable to the negative control”. The tyrosine phosphorylation ([5]; 10 μM) was “highest degree of tyrosine phosphorylation”, the “effect on Ly294002 induced PKB inhibition” value ([6]; 200 nM bpV(pic), Ly294002 0.01 to 100 μM) was “can abrogate Ly294002 induced PKB inhibition” and the “PKB phosphorylation at 5 μM Ly294002” value ([6]; in the presence of 200 nM bpV(pic)) was “phosphorylation still occurs”. For the same compound, the “increase of PKB phosphorylation in comparison with the control” value (PTEN [7]; 20 nM compound, control 0.5 μg/ml insulin) was “about 20%” and the IC50 (PTEN [7]; NIH3T3, 5 min compound then 0.5 μg/ml insulin 15 min, read-out: IC50 (in vivo PTEN inhibition, densitometry of pSer473 PKB)) was 48 nM.
